Laboratory results: ChEMBL document CHEMBL3867430, “Novel 3,4-seco bile acid diamides as selective anticancer proliferation and migration agents” (Eur J Med Chem, 2016)
Activity calls are given as the source filed them. No cut-off for these calls is given here.

Legend:
[1] = system: PC-3M; experiment: Induction of apoptosis in human PC3M cells assessed as early apoptotic cells at 5 uM after 48 hrs by annexin V-FITC/propidium iodide staining based flow cytometry (reference value: 31.94%); format: functional
[2] = Antiproliferative activity against human PC3M cells after 48 hrs by SRB assay; format: functional, cell-based; details: PC-3M
[3] = system: PC-3M; experiment: Induction of apoptosis in human PC3M cells assessed as early apoptotic cells at 20 uM after 48 hrs by annexin V-FITC/propidium iodide staining based flow cytometry (reference value: 31.94%); format: functional
[4] = system: PC-3M; experiment: Induction of apoptosis in human PC3M cells assessed as early apoptotic cells at 2.5 uM after 24 hrs by annexin V-FITC/propidium iodide staining based flow cytometry (reference value: 15.20%); format: functional
[5] = system: PC-3M; experiment: Inhibition of colony formation in human PC3M cells after 7 days by crystal violet staining based assay; format: functional, cell-based
[6] = Selectivity index, ratio of IC50 for HAF cells to IC50 for human HT-29 cells; format: functional
[7] = system: PC-3M; experiment: Induction of apoptosis in human PC3M cells assessed as late apoptotic cells at 2.5 uM after 24 hrs by annexin V-FITC/propidium iodide staining based flow cytometry (reference value: 0.97%); format: functional
[8] = Cell cycle arrest in human PC3M cells assessed as accumulation at G1 phase at 2.5 uM after 24 hrs by propidium iodide staining based flow cytometry (reference value: 56.82%); format: functional; details: PC-3M
[9] = system: PC-3M; experiment: Induction of apoptosis in human PC3M cells assessed as late apoptotic cells at 2.5 uM after 48 hrs by annexin V-FITC/propidium iodide staining based flow cytometry (reference value: 0.32%); format: functional
[10] = Antimigratory activity against human PC3M cells at 20 uM after 12 hrs by crystal violet staining based transwell migration assay; format: functional, PC-3M
[11] = system: PC-3M; experiment: Induction of apoptosis in human PC3M cells assessed as early apoptotic cells at 10 uM after 48 hrs by annexin V-FITC/propidium iodide staining based flow cytometry (reference value: 31.94%); format: functional
[12] = system: PC-3M; experiment: Inhibition of colony formation in human PC3M cells at 10 uM after 7 days by crystal violet staining based assay; format: functional, cell-based
[13] = Antiproliferative activity against human ES2 cells after 48 hrs by SRB assay; format: functional, cell-based; details: ES-2, 48 h
[14] = Cell cycle arrest in human PC3M cells assessed as accumulation at G1 phase at 10 uM after 24 hrs by propidium iodide staining based flow cytometry (reference value: 56.82%); format: functional; details: PC-3M
[15] = Cell cycle arrest in human PC3M cells assessed as reduction in S phase at 2.5 to 20 uM after 24 hrs by propidium iodide staining based flow cytometry; format: functional; details: PC-3M
[16] = system: PC-3M; experiment: Induction of apoptosis in human PC3M cells assessed as late apoptotic cells at 20 uM after 24 hrs by annexin V-FITC/propidium iodide staining based flow cytometry (reference value: 0.97%); format: functional
[17] = system: PC-3M; experiment: Induction of apoptosis in human PC3M cells assessed as late apoptotic cells at 5 uM after 24 hrs by annexin V-FITC/propidium iodide staining based flow cytometry (reference value: 0.97%); format: functional
[18] = Cell cycle arrest in human PC3M cells assessed as accumulation at G1 phase at 20 uM after 24 hrs by propidium iodide staining based flow cytometry (reference value: 56.82%); format: functional; details: PC-3M
[19] = system: PC-3M; experiment: Induction of apoptosis in human PC3M cells assessed as late apoptotic cells at 10 uM after 24 hrs by annexin V-FITC/propidium iodide staining based flow cytometry (reference value: 0.97%); format: functional
[20] = system: PC-3M; experiment: Induction of apoptosis in human PC3M cells assessed as late apoptotic cells at 10 uM after 48 hrs by annexin V-FITC/propidium iodide staining based flow cytometry (reference value: 0.32%); format: functional
[21] = system: PC-3M; experiment: Induction of apoptosis in human PC3M cells assessed as early apoptotic cells at 5 uM after 24 hrs by annexin V-FITC/propidium iodide staining based flow cytometry (reference value: 15.20%); format: functional
[22] = system: PC-3M; experiment: Induction of apoptosis in human PC3M cells assessed as late apoptotic cells at 5 uM after 48 hrs by annexin V-FITC/propidium iodide staining based flow cytometry (reference value: 0.32%); format: functional
[23] = system: PC-3M; experiment: Induction of apoptosis in human PC3M cells assessed as early apoptotic cells at 10 uM after 24 hrs by annexin V-FITC/propidium iodide staining based flow cytometry (reference value: 15.20%); format: functional
[24] = system: PC-3M; experiment: Induction of apoptosis in human PC3M cells assessed as early apoptotic cells at 2.5 uM after 48 hrs by annexin V-FITC/propidium iodide staining based flow cytometry (reference value: 31.94%); format: functional
[25] = system: PC-3M; experiment: Antimigratory activity against human PC3M cells after 12 hrs by crystal violet staining based transwell migration assay; format: functional, cell-based
[26] = Inhibition of colony formation in human PC3M cells at 5 uM after 7 days by crystal violet staining based assay; format: functional; details: PC-3M, 168 h
[27] = system: PC-3M; experiment: Induction of apoptosis in human PC3M cells assessed as late apoptotic cells at 20 uM after 48 hrs by annexin V-FITC/propidium iodide staining based flow cytometry (reference value: 0.32%); format: functional
[28] = Antiproliferative activity against human HT-29 cells after 48 hrs by SRB assay; format: functional, cell-based; details: HT-29, 48 h
[29] = Selectivity index, ratio of IC50 for HAF cells to IC50 for human ES2 cells; format: functional
[30] = Antimigratory activity against human PC3M cells at 2.5 uM after 12 hrs by crystal violet staining based transwell migration assay relative to control; format: functional, PC-3M
[31] = Antiproliferative activity against HAF cells after 48 hrs by SRB assay; format: cell-based; details: Homo sapiens
[32] = Selectivity index, ratio of IC50 for HAF cells to IC50 for human PC3M cells; format: functional
[33] = Cell cycle arrest in human PC3M cells assessed as accumulation at G1 phase after 24 hrs by propidium iodide staining based flow cytometry; format: functional; details: PC-3M
[34] = Cell cycle arrest in human PC3M cells assessed as accumulation at G1 phase at 5 uM after 24 hrs by propidium iodide staining based flow cytometry (reference value: 56.82%); format: functional; details: PC-3M
[35] = system: PC-3M; experiment: Induction of apoptosis in human PC3M cells assessed as early apoptotic cells at 20 uM after 24 hrs by annexin V-FITC/propidium iodide staining based flow cytometry (reference value: 15.20%); format: functional

`C=C(C)C1CC[C@H]2[C@@H]3CC[C@H]([C@H](C)CCC(=O)N4CCNCC4)[C@@]3(C)CC[C@@H]2[C@@]1(C)CCC(=O)N1CCNCC1` (stereo not given in full) showed an Activity [1] of 30.18%, an IC50 [2] of 1.07 µM and an Activity [3] of 22.72%. The Activity [4] was 15.36%, the inhibition [5] was “Dose-dependent effect” and the “Ratio IC50” value [6] was 6.1. The Activity [7] was 0.61%, the Activity [8] was 58.4% and the Activity [9] was 0.44%. The Activity [10] was 100%, the Activity [11] was 29.52% and the inhibition [12] was “Active”. The IC50 [13] was 3.86 µM, the Activity [14] was 69% and the Activity [15] was “Active”. For the same compound, the Activity [16] was 0.9%, the Activity [17] was 0.87% and the Activity [18] was 79%. The Activity [19] was 0.6%, the Activity [20] was 0.79% and the Activity [21] was 13.78%. For the same compound, the Activity [22] was 0.48%, the Activity [23] was 14.66% and the Activity [24] was 30.07%. The Activity [25] was “Dose-dependent effect”, the inhibition at 5 µM [26] was 70% and the Activity [27] was 1.31%. The IC50 [28] was 4.58 µM, the “Ratio IC50” value [29] was 7.3 and the Activity [30] was 50%. The IC50 [31] was 28.1 µM, the “Ratio IC50” value [32] was 26.3 and the Activity [33] was “Dose-dependent effect”. It also gave an Activity [34] of 66.3% and an Activity [35] of 14.5%.
